In the NIST ThermoML archive (doi:10.1021/je700287u):

Assay: xn = mol fraction of the nth substance listed
Conditions: Liquid

CN(CCO)CCO [N-methyldiethanolamine] + O
Conditions	mass density [kg/m3]
333.04 K, 10996 kPa, x1 = 0.0369	1000
333.04 K, 11991 kPa, x1 = 0.0369	1000.4
333.04 K, 12996 kPa, x1 = 0.0369	1000.8
333.04 K, 13988 kPa, x1 = 0.0369	1001.2
333.04 K, 14991 kPa, x1 = 0.0369	1001.6
333.04 K, 15994 kPa, x1 = 0.0369	1002
333.04 K, 16992 kPa, x1 = 0.0369	1002.4
333.04 K, 17985 kPa, x1 = 0.0369	1002.8
333.04 K, 18990 kPa, x1 = 0.0369	1003.2
333.04 K, 19977 kPa, x1 = 0.0369	1003.6
333.05 K, 1013 kPa, x1 = 0.0893	1013
333.05 K, 2006 kPa, x1 = 0.0893	1013.4
333.05 K, 2994 kPa, x1 = 0.0893	1013.8
333.05 K, 4031 kPa, x1 = 0.0893	1014.2
333.05 K, 4999 kPa, x1 = 0.0893	1014.6
333.05 K, 6000 kPa, x1 = 0.0893	1015
333.05 K, 6995 kPa, x1 = 0.0893	1015.4
333.05 K, 8005 kPa, x1 = 0.0893	1015.8
333.05 K, 9000 kPa, x1 = 0.0893	1016.2
333.05 K, 9992 kPa, x1 = 0.0893	1016.5
333.05 K, 10993 kPa, x1 = 0.0893	1017
333.05 K, 11998 kPa, x1 = 0.0893	1017.3
333.05 K, 13000 kPa, x1 = 0.0893	1017.7
333.05 K, 14008 kPa, x1 = 0.0893	1018.1
333.05 K, 14983 kPa, x1 = 0.0893	1018.5
333.05 K, 16002 kPa, x1 = 0.0893	1018.9
333.05 K, 17032 kPa, x1 = 0.0893	1019.3
333.05 K, 17945 kPa, x1 = 0.0893	1019.6
333.05 K, 18989 kPa, x1 = 0.0893	1020
333.05 K, 19994 kPa, x1 = 0.0893	1020.4
342.91 K, 1008 kPa, x1 = 0.1302	1011.7
342.91 K, 1996 kPa, x1 = 0.1302	1012.1
342.91 K, 3044 kPa, x1 = 0.1302	1012.5
342.91 K, 4015 kPa, x1 = 0.1302	1012.9
342.91 K, 5006 kPa, x1 = 0.1302	1013.4
342.91 K, 5995 kPa, x1 = 0.1302	1013.8
342.91 K, 7010 kPa, x1 = 0.1302	1014.2
342.91 K, 8001 kPa, x1 = 0.1302	1014.6
342.91 K, 8996 kPa, x1 = 0.1302	1015
342.91 K, 9995 kPa, x1 = 0.1302	1015.5
342.91 K, 10992 kPa, x1 = 0.1302	1015.9
342.91 K, 12029 kPa, x1 = 0.1302	1016.3
342.91 K, 12993 kPa, x1 = 0.1302	1016.7
342.91 K, 13996 kPa, x1 = 0.1302	1017.1
342.91 K, 14997 kPa, x1 = 0.1302	1017.5
342.91 K, 15998 kPa, x1 = 0.1302	1017.9
342.91 K, 16997 kPa, x1 = 0.1302	1018.3
342.91 K, 18033 kPa, x1 = 0.1302	1018.8
342.91 K, 18977 kPa, x1 = 0.1302	1019.2
342.91 K, 19980 kPa, x1 = 0.1302	1019.6
342.94 K, 1029 kPa, x1 = 0.0893	1005.9
342.94 K, 1996 kPa, x1 = 0.0893	1006.3
342.94 K, 3018 kPa, x1 = 0.0893	1006.7
342.94 K, 3995 kPa, x1 = 0.0893	1007.1
342.94 K, 5000 kPa, x1 = 0.0893	1007.5
342.94 K, 5992 kPa, x1 = 0.0893	1007.9
342.94 K, 7008 kPa, x1 = 0.0893	1008.3
342.94 K, 7994 kPa, x1 = 0.0893	1008.8
342.94 K, 9001 kPa, x1 = 0.0893	1009.1
342.94 K, 9994 kPa, x1 = 0.0893	1009.6
342.94 K, 10983 kPa, x1 = 0.0893	1010
342.94 K, 12000 kPa, x1 = 0.0893	1010.4
342.94 K, 12996 kPa, x1 = 0.0893	1010.8
342.94 K, 14014 kPa, x1 = 0.0893	1011.2
342.94 K, 14994 kPa, x1 = 0.0893	1011.6
342.94 K, 15989 kPa, x1 = 0.0893	1012
342.94 K, 16991 kPa, x1 = 0.0893	1012.4
342.94 K, 17989 kPa, x1 = 0.0893	1012.8
342.94 K, 18984 kPa, x1 = 0.0893	1013.2
342.94 K, 19988 kPa, x1 = 0.0893	1013.6
342.96 K, 1042 kPa, x1 = 0.0607	999.5
342.96 K, 2006 kPa, x1 = 0.0607	999.8
342.96 K, 3028 kPa, x1 = 0.0607	1000.3
342.96 K, 4013 kPa, x1 = 0.0607	1000.7
342.96 K, 5003 kPa, x1 = 0.0607	1001.2
342.96 K, 5994 kPa, x1 = 0.0607	1001.6
342.96 K, 7004 kPa, x1 = 0.0607	1002
342.96 K, 8063 kPa, x1 = 0.0607	1002.5
342.96 K, 9140 kPa, x1 = 0.0607	1003
342.96 K, 10022 kPa, x1 = 0.0607	1003.4
342.96 K, 11032 kPa, x1 = 0.0607	1003.7
342.96 K, 11997 kPa, x1 = 0.0607	1004.1
342.96 K, 13009 kPa, x1 = 0.0607	1004.5
342.96 K, 14001 kPa, x1 = 0.0607	1004.9
342.96 K, 15005 kPa, x1 = 0.0607	1005.3
342.96 K, 16002 kPa, x1 = 0.0607	1005.7
342.96 K, 17011 kPa, x1 = 0.0607	1006.1
342.96 K, 17988 kPa, x1 = 0.0607	1006.5
342.96 K, 18992 kPa, x1 = 0.0607	1006.9
342.96 K, 20154 kPa, x1 = 0.0607	1007.3
352.84 K, 1009 kPa, x1 = 0.1302	1004
352.84 K, 2026 kPa, x1 = 0.1302	1004.3
352.84 K, 3005 kPa, x1 = 0.1302	1004.8
352.84 K, 4006 kPa, x1 = 0.1302	1005.3
352.84 K, 5004 kPa, x1 = 0.1302	1005.7
352.84 K, 5993 kPa, x1 = 0.1302	1006.1
352.84 K, 6991 kPa, x1 = 0.1302	1006.5
352.84 K, 7992 kPa, x1 = 0.1302	1006.9
352.84 K, 8994 kPa, x1 = 0.1302	1007.4
352.84 K, 9980 kPa, x1 = 0.1302	1007.8
352.84 K, 10971 kPa, x1 = 0.1302	1008.2
352.84 K, 11987 kPa, x1 = 0.1302	1008.7
352.84 K, 13040 kPa, x1 = 0.1302	1009.1
352.84 K, 13997 kPa, x1 = 0.1302	1009.5
352.84 K, 14981 kPa, x1 = 0.1302	1009.9
